Article PMC2430034, “Structural Development Studies of Subtype-Selective Ligands for Peroxisome Proliferator-Activated Receptors (PPARs) Based on the 3,4-Disubstituted Phenylpropanoic Acid Scaffold as a Versatile Template” (PPAR Research, 2008)
pEC50: −log10 of the molar value. Read-outs that look alike come from different tables or passages of the source.

How the values were obtained:
Format in all cases: cell-based
[1] = molecular target: T1, PPARα (Homo sapiens, UniProt Q07869); test: PPARα-GAL4 chimeric receptor transactivation in HEK-293 cells; settings: PPAR-GAL4 chimeric receptors, transiently transfected HEK-293 cells; ia = inactive at 10 μM
T1 sequence (Q07869 200-468 limits assumed): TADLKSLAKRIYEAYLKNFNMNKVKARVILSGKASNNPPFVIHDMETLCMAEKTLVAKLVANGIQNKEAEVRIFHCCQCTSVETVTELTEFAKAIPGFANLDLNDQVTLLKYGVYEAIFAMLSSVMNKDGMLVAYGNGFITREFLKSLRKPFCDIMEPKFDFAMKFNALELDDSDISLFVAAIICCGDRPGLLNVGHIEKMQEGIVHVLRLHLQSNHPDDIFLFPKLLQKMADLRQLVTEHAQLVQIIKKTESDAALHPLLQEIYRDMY

[2] = molecular target: T2, PPARδ (Homo sapiens, UniProt Q03181); test: cell-based; settings: PPAR-GAL4 chimeric receptors, transiently transfected HEK-293 cells; ia = inactive at 10 μM; read-out: Transactivation activity EC50 PPARδ
T2 sequence (Q03181 171-441 limits assumed): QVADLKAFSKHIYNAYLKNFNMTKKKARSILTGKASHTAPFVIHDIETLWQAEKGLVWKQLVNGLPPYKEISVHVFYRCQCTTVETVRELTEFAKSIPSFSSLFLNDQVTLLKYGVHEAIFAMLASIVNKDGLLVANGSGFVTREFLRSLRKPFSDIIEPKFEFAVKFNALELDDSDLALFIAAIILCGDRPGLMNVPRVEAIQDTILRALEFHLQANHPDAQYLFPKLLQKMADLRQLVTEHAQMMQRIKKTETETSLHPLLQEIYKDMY

[3] = molecular target: T3, PPARγ (Homo sapiens, UniProt P37231); test: cell-based; settings: PPAR-GAL4 chimeric receptors, transiently transfected HEK-293 cells; ia = inactive at 10 μM; read-out: Transactivation activity EC50 PPARγ
T3 sequence (P37231 238-505 limits assumed): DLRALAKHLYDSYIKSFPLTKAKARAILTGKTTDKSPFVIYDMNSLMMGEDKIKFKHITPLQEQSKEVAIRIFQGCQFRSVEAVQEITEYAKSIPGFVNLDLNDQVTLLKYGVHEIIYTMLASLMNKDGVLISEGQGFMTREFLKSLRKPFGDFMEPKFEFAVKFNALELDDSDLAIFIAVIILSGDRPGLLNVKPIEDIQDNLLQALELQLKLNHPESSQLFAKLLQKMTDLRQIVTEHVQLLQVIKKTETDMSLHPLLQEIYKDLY

[4] = molecular target: T1, PPARα; test: PPARα-GAL4 chimeric receptor transactivation in CHO-K1 cells; settings: PPAR-GAL4 chimeric receptors, transiently transfected CHO-K1 cells, ia = inactive at 10 μM; for pEC50: read-out: Transactivation activity EC50 PPARα
[5] = molecular target: T4, PPARδ (Homo sapiens, UniProt Q03181); test: cell-based; settings: PPAR-GAL4 chimeric receptors, transiently transfected CHO-K1 cells, ia = inactive at 10 μM; for pEC50: read-out: Transactivation activity EC50 PPARδ
T4 sequence (Q03181 211-441 limits assumed): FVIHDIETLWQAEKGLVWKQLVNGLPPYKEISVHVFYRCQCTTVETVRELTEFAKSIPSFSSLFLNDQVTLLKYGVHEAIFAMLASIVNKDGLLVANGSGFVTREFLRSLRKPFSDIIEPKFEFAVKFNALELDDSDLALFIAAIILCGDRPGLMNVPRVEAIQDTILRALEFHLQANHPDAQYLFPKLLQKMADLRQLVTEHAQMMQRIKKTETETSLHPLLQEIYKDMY

[6] = molecular target: T5, PPARγ (Homo sapiens, UniProt P37231); test: cell-based; settings: PPAR-GAL4 chimeric receptors, transiently transfected CHO-K1 cells, ia = inactive at 10 μM; for pEC50: read-out: Transactivation activity EC50 PPARγ
T5 sequence (P37231 232-505 limits assumed): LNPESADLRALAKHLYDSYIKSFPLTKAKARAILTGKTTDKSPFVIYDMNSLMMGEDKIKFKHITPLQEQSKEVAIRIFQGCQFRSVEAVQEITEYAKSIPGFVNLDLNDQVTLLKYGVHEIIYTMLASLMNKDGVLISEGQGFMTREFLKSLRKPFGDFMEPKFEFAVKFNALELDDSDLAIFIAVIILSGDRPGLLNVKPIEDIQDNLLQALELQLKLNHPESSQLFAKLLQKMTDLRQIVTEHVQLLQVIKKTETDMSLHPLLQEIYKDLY

Transactivation activity EC50 PPARα [4] | SMILES | Transactivation activity EC50 PPARδ [5] | Transactivation activity EC50 PPARγ [6] | pEC50 [4] | also measured
– | CCC(Cc1ccc(OC)c(CNC(=O)c2ccc(C(F)(F)F)cc2F)c1)C(=O)O (racemic) [Compound 38] | – | – | – | pEC50 [1]: 8.00; pEC50 [2]: 7.62; pEC50 [3]: 5.66
– | CCC(Cc1ccc(OC)c(CNC(=O)c2ccc(C(F)(F)F)cc2)c1)C(=O)O (racemic) [Compound 49] | – | – | – | pEC50 [1]: 7.74; pEC50 [2]: 6.77
– | CCC(Cc1ccc(OC)c(CNC(=O)c2ccc(C(F)(F)F)cc2F)c1)C(=O)O (racemic) [Compound 55] | – | – | – | pEC50 [1]: 8.09; pEC50 [2]: 7.68
ia^(b) | COc1ccc(C(=O)O)cc1C(=O)NCc1ccc(C(F)(F)F)cc1 [Compound 7] | ia | ia | – | –
ia | COc1ccc(CC(=O)O)cc1C(=O)NCc1ccc(C(F)(F)F)cc1 [Compound 8] | ia | ia | – | –
– | COc1ccc(CCC(=O)O)cc1C(=O)NCc1ccc(C(F)(F)F)cc1 [Compound 9] | ia | ia | 5.89 | –
– | COc1ccc(CC(C)C(=O)O)cc1C(=O)NCc1ccc(C(F)(F)F)cc1 (stereo not drawn) [Compound 10] | – | ia | 6.62 | pEC50 [5]: 5.55
– | CCC(Cc1ccc(OC)c(C(=O)NCc2ccc(C(F)(F)F)cc2)c1)C(=O)O (stereo not drawn) [Compound 11] | – | – | 7.40 | pEC50 [5]: 5.44
– | CCCC(Cc1ccc(OC)c(C(=O)NCc2ccc(C(F)(F)F)cc2)c1)C(=O)O (stereo not drawn) [Compound 12] | – | ia | 6.44 | pEC50 [5]: 5.62
– | COc1ccc(CC(C(=O)O)C(C)C)cc1C(=O)NCc1ccc(C(F)(F)F)cc1 (stereo not drawn) [Compound 13] | ia | ia | 6.54 | –
– | CCCCC(Cc1ccc(OC)c(C(=O)NCc2ccc(C(F)(F)F)cc2)c1)C(=O)O (stereo not drawn) [Compound 14] | ia | – | 6.00 | pEC50 [6]: 5.60
ia | COc1ccc(CC(C(=O)O)c2ccccc2)cc1C(=O)NCc1ccc(C(F)(F)F)cc1 (stereo not drawn) [Compound 15] | ia | ia | – | –
– | COc1ccc(CC(OC)C(=O)O)cc1C(=O)NCc1ccc(C(F)(F)F)cc1 (stereo not drawn) [Compound 16] | ia | ia | 6.64 | –
– | CCOC(Cc1ccc(OC)c(C(=O)NCc2ccc(C(F)(F)F)cc2)c1)C(=O)O (stereo not drawn) [Compound 17] | – | – | 5.80 | pEC50 [5]: 5.52; pEC50 [6]: 5.55
ia | COc1ccc(CC(Oc2ccccc2)C(=O)O)cc1C(=O)NCc1ccc(C(F)(F)F)cc1 (stereo not drawn) [Compound 18] | ia | ia | – | –
– | COc1ccc(CC(C)(C)C(=O)O)cc1C(=O)NCc1ccc(C(F)(F)F)cc1 [Compound 19] | ia | ia | 5.54 | –
– | CCC(CC)(Cc1ccc(OC)c(C(=O)NCc2ccc(C(F)(F)F)cc2)c1)C(=O)O [Compound 20] | ia | ia | 5.55 | –
ia | COc1ccc(CC(Sc2ccccc2)C(=O)O)cc1C(=O)NCc1ccc(C(F)(F)F)cc1 (stereo not drawn) [Compound 22] | ia | ia | – | –
ia | COc1ccc(CC(SCc2ccccc2)C(=O)O)cc1C(=O)NCc1ccc(C(F)(F)F)cc1 (stereo not drawn) [Compound 23] | ia | ia | – | –
